In ChEMBL document CHEMBL3352436, “DDD-028: a potent potential non-opioid, non-cannabinoid analgesic for neuropathic and inflammatory pain” (Bioorg Med Chem Lett, 2014):
Activity calls are given as the source filed them.

Tests used:
Rattus norvegicus [1] = assay: Antinociceptive activity in spinal nerve ligation CD rat model of neuropathic pain assessed as inhibition of mechanical allodynia measured as time required for maximal effect at 39 mg/kg, po; format: functional
Rattus norvegicus [2] = assay: Antinociceptive activity in spinal nerve ligation CD rat model of neuropathic pain assessed as inhibition of mechanical allodynia measured as paw withdrawal threshold at 39 mg/kg, po up to 15 mins; format: functional, organism-based; set-up: dose 39 mg/kg
[3] = AUC (0 to t) in CD1 mouse at 5 mg/kg, po; format: ADME, organism-based; set-up: dose 5 mg/kg, route oral; settings: plasma
Mus musculus [4] = assay: Antinociceptive activity in sciatic nerve chronic constriction injury CD1 mouse model assessed as paw withdrawal threshold at 3.5 umol/kg, po measured at 60 mins (reference value: 0.26 to 0.37 g); format: functional
Rattus norvegicus [5] = assay: Antinociceptive activity in Complete Freund's adjuvant-induced inflammatory pain CD rat model assessed as mechanical hypersensitivity measured as weight bearing capacity at 5 mg/kg, po measured after 15 to 120 mins relative to indomethacin; format: functional
[6] = Half life in CD1 mouse at 5 mg/kg, po; format: ADME, organism-based; set-up: dose 5 mg/kg, route oral; settings: in vivo
Adenosine receptor A1 = biological target: T1, Adenosine receptor A1 (Homo sapiens, UniProt P30542); assay: Binding affinity to adenosine A1 receptor (unknown origin)
T1 sequence (P30542 whole entry): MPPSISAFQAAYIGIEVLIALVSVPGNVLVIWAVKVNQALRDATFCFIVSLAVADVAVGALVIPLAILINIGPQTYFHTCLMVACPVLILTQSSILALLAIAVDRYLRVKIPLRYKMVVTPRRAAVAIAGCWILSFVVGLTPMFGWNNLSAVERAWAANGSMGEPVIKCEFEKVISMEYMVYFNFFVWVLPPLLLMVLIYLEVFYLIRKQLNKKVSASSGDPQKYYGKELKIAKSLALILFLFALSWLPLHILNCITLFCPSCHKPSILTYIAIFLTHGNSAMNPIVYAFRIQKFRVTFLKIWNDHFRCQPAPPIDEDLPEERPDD

Rattus norvegicus [7] = assay: Antinociceptive activity in spinal nerve ligation CD rat model of neuropathic pain assessed as inhibition of mechanical allodynia at 39 mg/kg, po after 15 to 180 mins; format: functional
[8] = Binding affinity to strychnine-sensitive glycine receptor (unknown origin); set-up: species or system Homo sapiens
[9] = Binding affinity to […] AMPA receptor (unknown origin); set-up: species or system Homo sapiens
[10] = Cmax in CD1 mouse at 5 mg/kg, po; format: ADME, organism-based; set-up: dose 5 mg/kg, route oral; settings: in vivo
Rattus norvegicus [11] = assay: Antinociceptive activity in spinal nerve ligation CD rat model of neuropathic pain assessed as inhibition of mechanical allodynia measured as paw withdrawal threshold at 5 mg/kg, po after 15 to 180 mins relative to pregabalin; format: functional
Mus musculus [12] = assay: Antinociceptive activity in sciatic nerve chronic constriction injury CD1 mouse model assessed as paw withdrawal threshold at 3.5 umol/kg, po measured at 300 mins (reference value: 0.26 to 0.37 g); format: functional
[13] = biological target: Transient receptor potential cation channel subfamily V member 1 (Homo sapiens, UniProt Q8NER1); assay: Binding affinity to TRPV1 (unknown origin)
Adenosine receptor A3 = biological target: T2, Adenosine receptor A3 (Homo sapiens, UniProt P0DMS8); assay: Binding affinity to adenosine A3 receptor (unknown origin)
T2 sequence (P0DMS8 whole entry): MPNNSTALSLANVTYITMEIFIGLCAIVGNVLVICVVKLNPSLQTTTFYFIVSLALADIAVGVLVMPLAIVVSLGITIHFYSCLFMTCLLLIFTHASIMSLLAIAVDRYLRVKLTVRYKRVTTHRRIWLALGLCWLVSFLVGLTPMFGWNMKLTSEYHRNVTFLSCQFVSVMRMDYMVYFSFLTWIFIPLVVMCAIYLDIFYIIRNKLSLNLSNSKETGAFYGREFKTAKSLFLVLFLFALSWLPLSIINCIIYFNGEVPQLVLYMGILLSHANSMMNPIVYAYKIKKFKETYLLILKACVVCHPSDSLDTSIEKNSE

Mus musculus [14] = assay: Antinociceptive activity in sciatic nerve chronic constriction injury CD1 mouse model assessed as paw withdrawal threshold at 1.3 umol/kg administered intrathecally measured at 180 mins (reference value: 0.21 to 0.30 g); format: functional
Mus musculus [15] = assay: Antinociceptive activity in sciatic nerve chronic constriction injury CD1 mouse model assessed as paw withdrawal threshold at 1.3 umol/kg administered intrathecally measured at 120 mins (reference value: 0.21 to 0.30 g); format: functional
Cannabinoid receptor 2 = Cannabinoid receptor 2 (Homo sapiens, UniProt P34972); assay: Binding affinity to cannabinoid CB2 receptor (unknown origin)
[16] = biological target: Somatostatin receptor type 2 (Homo sapiens, UniProt P30874); assay: Binding affinity to SST2 receptor (unknown origin)
Rattus norvegicus [17] = assay: Toxicity in Complete Freund's adjuvant-induced inflammatory pain CD rat model assessed as sedation at 5 mg/kg, po measured at 2 hrs post dose; format: organism-based; set-up: dose 5 mg/kg, route oral; settings: in vivo
Rattus norvegicus [18] = assay: Antinociceptive activity in Complete Freund's adjuvant-induced inflammatory pain CD rat model assessed as mechanical hypersensitivity measured as weight bearing capacity at 5 mg/kg, po administered before challenge relative to control; format: functional
Cannabinoid receptor 1 = Cannabinoid receptor 1 (Homo sapiens, UniProt P21554); assay: Binding affinity to cannabinoid CB1 receptor (unknown origin)
[19] = biological target: Somatostatin receptor type 4 (Homo sapiens, UniProt P31391); assay: Binding affinity to SST4 receptor (unknown origin)
Rattus norvegicus [20] = assay: Antinociceptive activity in spinal nerve ligation CD rat model of neuropathic pain assessed as inhibition of mechanical allodynia measured as time required for maximal effect at 5 mg/kg, po; format: functional
Mus musculus [21] = assay: Antinociceptive activity in sciatic nerve chronic constriction injury CD1 mouse model assessed as paw withdrawal threshold at 3.5 umol/kg, po measured at 30 mins (reference value: 0.26 to 0.37 g); format: functional
Mus musculus [22] = assay: Antinociceptive activity in sciatic nerve chronic constriction injury CD1 mouse model assessed as paw withdrawal threshold at 1.3 umol/kg administered intrathecally measured at 30 mins (reference value: 0.21 to 0.30 g); format: functional
Rattus norvegicus [23] = assay: Antinociceptive activity in Complete Freund's adjuvant-induced inflammatory pain CD rat model assessed as mechanical hypersensitivity measured as weight bearing capacity at 5 mg/kg, po administered 24 hrs post challenge relative to control; format: functional
Mus musculus [24] = assay: Antinociceptive activity in sciatic nerve chronic constriction injury CD1 mouse model assessed as paw withdrawal threshold at 3.5 umol/kg, po measured at 180 mins (reference value: 0.26 to 0.37 g); format: functional
Rattus norvegicus [25] = assay: Antinociceptive activity in Complete Freund's adjuvant-induced inflammatory pain CD rat model assessed as time required for maximal effect at 5 mg/kg, po relative to control; format: functional
Mus musculus [26] = assay: Antinociceptive activity in sciatic nerve chronic constriction injury CD1 mouse model assessed as paw withdrawal threshold at 3.5 umol/kg, po measured at 120 mins (reference value: 0.26 to 0.37 g); format: functional
[27] = AUC (0 to infinity) in CD1 mouse at 5 mg/kg, po; format: ADME, organism-based; set-up: time infinity, dose 5 mg/kg, route oral; settings: plasma
[28] = Binding affinity to strychnine-insensitive glycine receptor (unknown origin); set-up: species or system Homo sapiens
[29] = Elimination rate constant in CD1 mouse at 5 mg/kg, po; format: ADME, organism-based; set-up: dose 5 mg/kg, route oral; settings: in vivo
Rattus norvegicus [30] = assay: Antinociceptive activity in Complete Freund's adjuvant-induced inflammatory pain CD rat model assessed as mechanical hypersensitivity measured as weight bearing capacity at 5 mg/kg, po measured up to 15 mins relative to control; format: functional, organism-based; set-up: dose 5 mg/kg
Mus musculus [31] = assay: Antinociceptive activity in sciatic nerve chronic constriction injury CD1 mouse model assessed as paw withdrawal threshold at 1.3 umol/kg administered intrathecally measured at 60 mins (reference value: 0.21 to 0.30 g); format: functional
Mus musculus [32] = assay: Antinociceptive activity in sciatic nerve chronic constriction injury CD1 mouse model assessed as paw withdrawal threshold at 1.3 umol/kg administered intrathecally measured at 300 mins (reference value: 0.21 to 0.30 g); format: functional
[33] = Tmax in CD1 mouse at 5 mg/kg, po; format: ADME, organism-based; set-up: dose 5 mg/kg, route oral; settings: in vivo
Adenosine receptor A2a = Adenosine receptor A2a (Homo sapiens, UniProt P29274); assay: Binding affinity to adenosine A2A receptor (unknown origin)
[34] = Binding affinity to sigma2 receptor (unknown origin); set-up: species or system Homo sapiens
Rattus norvegicus [35] = assay: Antinociceptive activity in Complete Freund's adjuvant-induced inflammatory pain CD rat model assessed as mechanical hypersensitivity measured as weight bearing capacity at 5 mg/kg, po measured after 15 to 120 mins relative to control; format: functional
[36] = Elimination rate constant in CD rat at 27 mg/kg, iv; format: ADME, organism-based; set-up: dose 27 mg/kg, route intravenous; settings: in vivo
[37] = Tmax in CD rat at 27 mg/kg, iv; format: ADME, organism-based; set-up: dose 27 mg/kg, route intravenous; settings: in vivo
[38] = Half life in CD rat at 27 mg/kg, iv; format: ADME, organism-based; set-up: dose 27 mg/kg, route intravenous; settings: in vivo
[39] = Cmax in CD rat at 27 mg/kg, iv; format: ADME, organism-based; set-up: dose 27 mg/kg, route intravenous; settings: in vivo
[40] = AUC (0 to infinity) in CD rat at 27 mg/kg, iv; format: ADME, organism-based; set-up: time infinity, dose 27 mg/kg, route intravenous; settings: plasma
Rattus norvegicus [41] = assay: Antinociceptive activity in Complete Freund's adjuvant-induced inflammatory pain CD rat model assessed as time required for maximal effect at 30 mg/kg, po relative to control; format: functional
[42] = AUC (0 to t) in CD rat at 27 mg/kg, iv; format: ADME, organism-based; set-up: dose 27 mg/kg, route intravenous; settings: plasma
Rattus norvegicus [43] = assay: Toxicity in Complete Freund's adjuvant-induced inflammatory pain CD rat model assessed as sedation at 30 mg/kg, po measured at 2 hrs post dose; format: organism-based; set-up: dose 30 mg/kg, route oral; settings: in vivo
Rattus norvegicus [44] = assay: Antinociceptive activity in Complete Freund's adjuvant-induced inflammatory pain CD rat model assessed as mechanical hypersensitivity measured as weight bearing capacity at 30 mg/kg, po measured up to 15 mins relative to control; format: functional, organism-based; set-up: dose 30 mg/kg
Rattus norvegicus [45] = assay: Antinociceptive activity in Complete Freund's adjuvant-induced inflammatory pain CD rat model assessed as mechanical hypersensitivity measured as weight bearing capacity at 30 mg/kg, po measured after 15 to 120 mins relative to control; format: functional, organism-based; set-up: dose 30 mg/kg

Somatostatin receptor type 2, sequence (P30874 whole entry): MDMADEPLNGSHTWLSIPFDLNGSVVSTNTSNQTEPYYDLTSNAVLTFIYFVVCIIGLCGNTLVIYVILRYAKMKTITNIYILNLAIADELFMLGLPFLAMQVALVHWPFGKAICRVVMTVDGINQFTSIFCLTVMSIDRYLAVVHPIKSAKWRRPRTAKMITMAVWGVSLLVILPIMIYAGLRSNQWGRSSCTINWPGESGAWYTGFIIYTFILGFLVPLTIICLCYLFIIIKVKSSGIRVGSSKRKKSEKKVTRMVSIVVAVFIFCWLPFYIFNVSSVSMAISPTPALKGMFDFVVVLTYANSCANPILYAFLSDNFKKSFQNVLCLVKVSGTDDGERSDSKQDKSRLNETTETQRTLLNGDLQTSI
Cannabinoid receptor 1, sequence (P21554 whole entry): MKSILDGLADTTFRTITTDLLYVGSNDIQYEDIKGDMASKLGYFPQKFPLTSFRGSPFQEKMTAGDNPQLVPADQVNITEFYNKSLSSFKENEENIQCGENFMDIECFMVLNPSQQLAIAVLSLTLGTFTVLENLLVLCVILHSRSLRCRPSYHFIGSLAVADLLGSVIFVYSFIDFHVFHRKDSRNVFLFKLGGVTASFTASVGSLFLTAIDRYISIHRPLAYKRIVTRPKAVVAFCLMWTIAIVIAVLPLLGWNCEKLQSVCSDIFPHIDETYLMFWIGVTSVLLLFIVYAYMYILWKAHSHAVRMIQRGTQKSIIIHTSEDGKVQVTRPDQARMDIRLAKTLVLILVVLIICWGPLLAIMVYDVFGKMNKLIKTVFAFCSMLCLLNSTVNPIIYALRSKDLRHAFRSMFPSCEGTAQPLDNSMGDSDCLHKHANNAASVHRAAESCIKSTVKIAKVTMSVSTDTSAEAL
Somatostatin receptor type 4, sequence (P31391 whole entry): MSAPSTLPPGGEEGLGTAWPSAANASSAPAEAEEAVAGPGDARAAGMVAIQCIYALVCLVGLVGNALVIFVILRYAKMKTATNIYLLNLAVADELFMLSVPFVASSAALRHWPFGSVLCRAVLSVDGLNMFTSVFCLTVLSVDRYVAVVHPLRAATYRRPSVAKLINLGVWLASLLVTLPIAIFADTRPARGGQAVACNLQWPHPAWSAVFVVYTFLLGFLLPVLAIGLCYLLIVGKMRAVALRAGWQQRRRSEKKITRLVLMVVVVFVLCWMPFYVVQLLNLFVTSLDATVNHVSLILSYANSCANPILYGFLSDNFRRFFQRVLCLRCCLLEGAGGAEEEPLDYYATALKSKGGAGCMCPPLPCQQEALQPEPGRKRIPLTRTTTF
Cannabinoid receptor 2, sequence (P34972 whole entry): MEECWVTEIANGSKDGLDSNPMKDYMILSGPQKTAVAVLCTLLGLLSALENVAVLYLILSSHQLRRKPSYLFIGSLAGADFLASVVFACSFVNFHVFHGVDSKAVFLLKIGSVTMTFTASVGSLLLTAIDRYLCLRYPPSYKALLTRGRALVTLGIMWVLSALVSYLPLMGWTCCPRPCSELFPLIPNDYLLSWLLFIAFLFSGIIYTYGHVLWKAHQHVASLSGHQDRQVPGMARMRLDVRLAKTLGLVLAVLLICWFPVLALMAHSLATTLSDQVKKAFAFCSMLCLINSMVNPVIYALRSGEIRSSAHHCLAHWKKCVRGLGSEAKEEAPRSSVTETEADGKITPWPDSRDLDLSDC
Adenosine receptor A2a, sequence (P29274 whole entry): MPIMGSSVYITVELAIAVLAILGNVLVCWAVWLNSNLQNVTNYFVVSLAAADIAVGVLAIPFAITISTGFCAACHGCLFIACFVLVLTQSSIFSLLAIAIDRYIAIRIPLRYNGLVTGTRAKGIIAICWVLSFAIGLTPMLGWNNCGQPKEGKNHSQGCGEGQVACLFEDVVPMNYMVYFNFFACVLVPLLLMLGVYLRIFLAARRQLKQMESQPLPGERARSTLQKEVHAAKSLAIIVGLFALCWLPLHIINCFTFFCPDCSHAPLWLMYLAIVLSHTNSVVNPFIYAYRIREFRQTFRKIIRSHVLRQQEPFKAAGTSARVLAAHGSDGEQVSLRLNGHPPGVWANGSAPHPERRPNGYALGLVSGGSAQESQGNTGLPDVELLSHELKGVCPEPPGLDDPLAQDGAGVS
Transient receptor potential cation channel subfamily V member 1, sequence (Q8NER1 whole entry): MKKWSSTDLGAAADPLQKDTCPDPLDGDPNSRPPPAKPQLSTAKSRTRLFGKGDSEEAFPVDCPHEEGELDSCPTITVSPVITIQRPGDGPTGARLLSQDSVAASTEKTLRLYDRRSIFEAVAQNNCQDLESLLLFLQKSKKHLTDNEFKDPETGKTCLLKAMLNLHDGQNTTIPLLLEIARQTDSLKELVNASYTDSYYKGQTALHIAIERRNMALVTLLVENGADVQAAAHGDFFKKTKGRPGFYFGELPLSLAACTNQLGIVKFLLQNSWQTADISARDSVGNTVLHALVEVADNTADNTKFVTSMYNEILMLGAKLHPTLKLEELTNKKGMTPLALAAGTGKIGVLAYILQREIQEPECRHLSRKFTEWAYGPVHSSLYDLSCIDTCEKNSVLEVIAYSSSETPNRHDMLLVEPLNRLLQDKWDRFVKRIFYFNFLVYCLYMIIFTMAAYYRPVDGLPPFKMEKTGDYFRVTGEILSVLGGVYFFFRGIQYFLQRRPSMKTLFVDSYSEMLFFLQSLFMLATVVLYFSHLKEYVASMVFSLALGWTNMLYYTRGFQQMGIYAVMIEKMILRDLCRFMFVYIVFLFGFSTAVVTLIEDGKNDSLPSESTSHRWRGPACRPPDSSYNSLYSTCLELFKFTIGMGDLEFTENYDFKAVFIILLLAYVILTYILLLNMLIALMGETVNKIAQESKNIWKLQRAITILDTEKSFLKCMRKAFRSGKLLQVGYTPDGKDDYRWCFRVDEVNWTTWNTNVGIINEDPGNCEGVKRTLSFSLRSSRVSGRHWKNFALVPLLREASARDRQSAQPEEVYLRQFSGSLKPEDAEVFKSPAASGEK

In the case of `CC(C)C[C@H](CN)CC(=O)O` [PREGABALIN], the Time (Rattus norvegicus [1]) is reported as 120 min and the inhibition (Rattus norvegicus [2]) is reported as “Active”.

With `CN1CCc2c(c3cccc4c3n2CCc2ccccc2-4)C1` the AUC(0-t) [3] was 0.211 µg·h/mL, the Activity (Mus musculus [4]) was 1.09 g and the “fold change (FC)” value (Rattus norvegicus [5]) was 5. The half-life [6] was 1.86 h, the Ki (Adenosine receptor A1) was greater than 10 µM and the inhibition in vivo at 39 mg/kg (Rattus norvegicus [7]) was 50%. It also gave a Ki [8] greater than 10 µM, a Ki [9] greater than 10 µM and a Cmax [10] of 0.126 µg/mL. For the same compound, the “fold change (FC)” value (Rattus norvegicus [11]) was 7, the Activity (Mus musculus [12]) was 0.21 g and the Ki [13] was “Not Active”. For the same compound, the Ki (Adenosine receptor A3) was greater than 10 µM, the Activity (Mus musculus [14]) was 0.41 g and the Activity (Mus musculus [15]) was 0.67 g. For the same compound, the Ki (Cannabinoid receptor 2) was greater than 10 µM, the Ki [16] was greater than 10 µM and the Activity (Rattus norvegicus [17]) was “Non-toxic”. For the same compound, the Activity (Rattus norvegicus [18]) was 50.8%, the Ki (Cannabinoid receptor 1) was greater than 10 µM and the Ki [19] was greater than 10 µM. The Time (Rattus norvegicus [20]) was 30 min, the Activity (Mus musculus [21]) was 0.75 g and the Activity (Mus musculus [22]) was 0.86 g. The Activity (Rattus norvegicus [23]) was 35.2%, the Activity (Mus musculus [24]) was 0.4 g and the Time (Rattus norvegicus [25]) was 60 min. For the same compound, the Activity (Mus musculus [26]) was 0.57 g, the AUC(0-inf) [27] was 0.216 µg·h/mL and the Ki [28] was greater than 10 µM. The k el [29] was 0.000103 s⁻¹, the Activity (Rattus norvegicus [30]) was “Active” and the Activity (Mus musculus [31]) was 0.88 g. For the same compound, the Activity (Mus musculus [32]) was 0.21 g, the Tmax [33] was 0.25 h and the Ki (Adenosine receptor A2a) was greater than 10 µM. The Ki [34] was 0.312 µM and the Activity (Rattus norvegicus [35]) was 90%.

`COc1ccc2c(c1)c(CC(=O)O)c(C)n2C(=O)c1ccc(Cl)cc1` [INDOMETHACIN] gave a k el [36] of 3.33e-05 s⁻¹, a Tmax [37] of 0.75 h and a half-life [38] of 5.99 h. The Cmax [39] was 10.4 µg/mL, the AUC(0-inf) [40] was 97.1 µg·h/mL and the Time (Rattus norvegicus [41]) was 60 min. For the same compound, the AUC(0-t) [42] was 93.8 µg·h/mL, the Activity (Rattus norvegicus [43]) was “Toxic” and the Activity (Rattus norvegicus [44]) was “Active”. The Activity (Rattus norvegicus [45]) was “Active”.
